# Assay results reported in paper PMC12660299, “Isoliquiritigenin Attenuates Staphylococcus aureus Adhesion and Invasion to Counteract Staphylococcus aureus Pathogenicity and Infection” (Frontiers in Cellular and Infection Microbiology, 2025).
# pIC50: −log10 of the molar value.
# Target: T1, sortase A (SrtA) (Staphylococcus aureus, UniProt Q2FV99)
# T1 construct: recombinant SrtAΔN59
# Assay: FRET peptide-cleavage assay with purified recombinant SrtA; supported by fluorescence quenching (Ka = […] L/mol) and reversibility by dilution
# Assay type: biochemical
# T1 sequence (Q2FV99 60-206): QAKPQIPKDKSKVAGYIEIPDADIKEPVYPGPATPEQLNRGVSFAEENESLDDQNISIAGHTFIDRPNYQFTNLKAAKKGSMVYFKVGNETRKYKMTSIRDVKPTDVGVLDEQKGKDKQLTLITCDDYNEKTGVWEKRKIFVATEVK
compound,measurement,value
"O=C(/C=C/c1ccc(O)cc1)c1ccc(O)cc1O [ISL, isoliquiritigenin]",pIC50,4.28
